Legend:
HiBit-BRM fusion protein = biological target: T1, HiBit-BRM fusion protein (Homo sapiens, UniProt P51531); assay: HiBiT-BRM cell-based degradation assay (Nano-Glo HiBiT Lytic Detection, 24 h); settings: stable HeLa cell line expressing HiBiT-BRM; for DC50: read-out: BRM HiBit Degradation IC50
T1 construct: expressed in transfected cells
Procedure: (§1) Procedure: A stable HeLa cell line expressing HiBiT-BRM was generated. On day 0, 5000 cells were seeded in 40 μL of media into each well of 384-well cell culture plates. On day 1, cells were treated with 120 nL DMSO or 120 nL of 3-fold serially DMSO-diluted compounds (10 points in duplicate with 30 μM as final top dose). Subsequently plates were incubated for 24 h in a standard tissue culture incubator and equilibrated at room temperature for 15 minutes. Nano-Glo HiBiT Lytic Detection System (Promega N3050) reagent was freshly prepared and 20 ul was added to each well. Upon addition of this LgBit-containing reagent, the HiBiT and LgBiT proteins associate to form the luminescent NanoBiT Iuciferase. The plates were shaken for 10 minutes at room temperature and the bioluminescence read using an EnVision plate reader (PerkinElmer).
(§2) The degradation % was calculated using the following formula: % degradation=100%-100%×(LumSample−LumLC)/(LumHC−LumLC). DMSO treated cells are employed as High Control (HC) and 2 μM of a known BRM/BRG1 degrader standard treated cells are employed as Low Control (LC).

[1] = biological target: T2, HiBit-BRG1 fusion protein (Homo sapiens, UniProt P51532); assay: HiBiT-BRG1 cell-based degradation assay (Nano-Glo HiBiT Lytic Detection, 24 h); settings: stable HeLa cell line expressing HiBit-BRG1 and LgBit; for Dmax: read-out: BRG1 HiBit Degradation Maximum (%); for DC50: read-out: BRMG1 HiBit Degradation IC50
T2 construct: expressed in transfected cells
Procedure: as §1
For measurement of BRG1 degradation, a stable HeLa cell line expressing HiBit-BRG1 and LgBit was generated. The same protocol as above was then followed.
as §2

T1 sequence (P51531 whole entry, the tested form may be a part): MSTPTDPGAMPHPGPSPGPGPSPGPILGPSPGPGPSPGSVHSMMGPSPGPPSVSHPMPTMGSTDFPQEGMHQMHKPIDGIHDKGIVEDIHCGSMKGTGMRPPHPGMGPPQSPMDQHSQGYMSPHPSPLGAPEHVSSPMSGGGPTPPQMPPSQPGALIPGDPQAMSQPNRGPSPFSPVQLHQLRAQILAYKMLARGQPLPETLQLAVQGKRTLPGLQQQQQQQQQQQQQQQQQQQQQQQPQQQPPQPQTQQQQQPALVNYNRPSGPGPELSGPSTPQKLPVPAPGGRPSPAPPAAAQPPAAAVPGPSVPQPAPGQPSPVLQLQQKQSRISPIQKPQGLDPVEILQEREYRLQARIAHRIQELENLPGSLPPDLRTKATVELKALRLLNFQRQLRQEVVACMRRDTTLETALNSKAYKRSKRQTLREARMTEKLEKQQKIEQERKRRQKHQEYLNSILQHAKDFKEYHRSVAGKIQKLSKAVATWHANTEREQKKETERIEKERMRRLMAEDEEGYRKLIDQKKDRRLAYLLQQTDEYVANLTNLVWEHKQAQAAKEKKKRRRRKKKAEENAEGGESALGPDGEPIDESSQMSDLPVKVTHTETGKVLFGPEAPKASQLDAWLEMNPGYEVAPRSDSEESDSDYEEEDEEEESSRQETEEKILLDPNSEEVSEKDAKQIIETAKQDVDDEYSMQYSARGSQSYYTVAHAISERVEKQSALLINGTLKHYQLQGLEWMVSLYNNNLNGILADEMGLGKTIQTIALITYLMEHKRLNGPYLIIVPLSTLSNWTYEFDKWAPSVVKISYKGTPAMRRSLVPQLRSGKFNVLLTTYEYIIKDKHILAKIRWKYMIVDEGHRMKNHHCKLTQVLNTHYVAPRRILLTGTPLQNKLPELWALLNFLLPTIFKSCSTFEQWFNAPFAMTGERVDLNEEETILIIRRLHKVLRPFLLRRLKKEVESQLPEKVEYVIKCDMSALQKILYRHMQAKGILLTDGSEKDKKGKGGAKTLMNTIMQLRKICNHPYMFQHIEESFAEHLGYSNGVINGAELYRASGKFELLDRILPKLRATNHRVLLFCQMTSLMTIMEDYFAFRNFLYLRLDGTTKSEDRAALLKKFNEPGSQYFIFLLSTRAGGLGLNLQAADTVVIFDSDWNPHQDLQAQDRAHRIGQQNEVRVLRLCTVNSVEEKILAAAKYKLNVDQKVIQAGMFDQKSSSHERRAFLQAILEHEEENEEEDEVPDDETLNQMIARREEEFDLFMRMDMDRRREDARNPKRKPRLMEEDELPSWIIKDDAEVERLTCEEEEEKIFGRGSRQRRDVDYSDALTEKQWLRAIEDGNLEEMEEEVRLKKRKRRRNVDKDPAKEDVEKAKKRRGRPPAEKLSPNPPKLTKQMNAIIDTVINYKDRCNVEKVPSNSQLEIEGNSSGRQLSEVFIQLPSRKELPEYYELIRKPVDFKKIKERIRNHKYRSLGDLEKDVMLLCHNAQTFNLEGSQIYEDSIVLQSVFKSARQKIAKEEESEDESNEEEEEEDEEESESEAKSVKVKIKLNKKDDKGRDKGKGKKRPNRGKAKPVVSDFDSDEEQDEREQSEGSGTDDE
T2 sequence (P51532 whole entry, the tested form may be a part): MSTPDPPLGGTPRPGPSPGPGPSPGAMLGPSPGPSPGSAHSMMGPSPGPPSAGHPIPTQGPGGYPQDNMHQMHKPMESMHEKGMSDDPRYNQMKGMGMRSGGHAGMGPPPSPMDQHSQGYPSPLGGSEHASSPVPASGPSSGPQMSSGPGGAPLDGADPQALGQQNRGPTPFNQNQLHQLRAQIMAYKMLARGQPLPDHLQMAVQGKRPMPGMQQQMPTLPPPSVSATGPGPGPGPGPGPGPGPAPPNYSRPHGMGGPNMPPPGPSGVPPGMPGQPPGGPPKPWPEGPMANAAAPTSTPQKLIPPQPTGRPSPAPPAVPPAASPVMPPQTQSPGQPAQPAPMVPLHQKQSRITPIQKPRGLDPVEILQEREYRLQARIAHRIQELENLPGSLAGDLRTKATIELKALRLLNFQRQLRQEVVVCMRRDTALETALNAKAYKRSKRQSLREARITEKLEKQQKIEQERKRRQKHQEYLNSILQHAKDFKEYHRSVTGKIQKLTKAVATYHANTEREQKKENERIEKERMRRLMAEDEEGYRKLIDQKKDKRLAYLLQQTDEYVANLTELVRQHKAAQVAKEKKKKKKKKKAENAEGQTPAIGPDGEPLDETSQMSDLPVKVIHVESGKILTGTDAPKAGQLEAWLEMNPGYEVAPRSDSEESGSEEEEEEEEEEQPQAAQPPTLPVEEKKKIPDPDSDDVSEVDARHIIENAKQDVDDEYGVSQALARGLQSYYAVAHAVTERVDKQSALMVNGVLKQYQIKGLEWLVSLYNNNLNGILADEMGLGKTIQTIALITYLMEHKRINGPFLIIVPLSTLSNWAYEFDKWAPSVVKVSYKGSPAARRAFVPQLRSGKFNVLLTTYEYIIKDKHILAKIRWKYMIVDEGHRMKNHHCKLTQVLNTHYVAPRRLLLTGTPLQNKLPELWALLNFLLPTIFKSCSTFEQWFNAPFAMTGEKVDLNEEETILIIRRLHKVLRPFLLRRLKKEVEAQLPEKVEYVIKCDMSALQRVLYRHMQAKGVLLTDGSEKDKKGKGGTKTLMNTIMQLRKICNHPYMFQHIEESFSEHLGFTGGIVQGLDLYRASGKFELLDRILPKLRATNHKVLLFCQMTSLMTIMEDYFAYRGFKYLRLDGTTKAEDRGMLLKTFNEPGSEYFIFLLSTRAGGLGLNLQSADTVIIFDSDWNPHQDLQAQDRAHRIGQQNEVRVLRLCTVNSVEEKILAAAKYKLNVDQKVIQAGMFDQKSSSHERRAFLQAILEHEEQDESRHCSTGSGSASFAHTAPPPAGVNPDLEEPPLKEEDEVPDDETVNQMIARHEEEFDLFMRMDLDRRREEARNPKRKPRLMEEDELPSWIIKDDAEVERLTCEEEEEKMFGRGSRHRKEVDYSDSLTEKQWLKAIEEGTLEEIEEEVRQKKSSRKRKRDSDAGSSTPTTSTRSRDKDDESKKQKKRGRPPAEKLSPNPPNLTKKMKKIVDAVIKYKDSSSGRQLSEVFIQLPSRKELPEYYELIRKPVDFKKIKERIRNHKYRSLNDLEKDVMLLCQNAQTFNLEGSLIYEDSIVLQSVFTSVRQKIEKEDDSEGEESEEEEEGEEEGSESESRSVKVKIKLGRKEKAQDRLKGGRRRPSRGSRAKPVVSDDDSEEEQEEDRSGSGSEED

| SMILES | BRM HiBit Degradation Maximum (%) (HiBit-BRM fusion protein) | DC50 (HiBit-BRM fusion protein) [nM] | Dmax [1] [%] | DC50 [1] [nM] |
| --- | --- | --- | --- | --- |
| Cc1ncsc1-c1ccc([C@H](C)NC(=O)[C@@H]2C[C@@H](O)CN2C(=O)[C@@H](c2cc(-c3ccnc(N4CC[C@H](c5cc6nnc(-c7ccccc7O)cc6s5)C4)n3)no2)C(C)C)cc1 [Compound 86, (2S,4R)-4-hydroxy-1-((R)-2-(3-(2-((S)-3-(3-(2-hydroxyphenyl)thieno[3,2-c]pyridazin-6-yl)pyrrolidin-1-yl)pyrimidin-4-yl)isoxazol-5-yl)-3-methylbutanoyl)-N-((S)-1-(4-(4-methylthiazol-5-yl)phenyl)ethyl)pyrrolidine-2-carboxamide] | A (“A” indicates maximum degradation ≥75%) | > 100 | < 50 | – |
| Cc1ncsc1-c1ccc([C@H](C)NC(=O)[C@@H]2C[C@@H](O)CN2C(=O)[C@@H](c2cc(N3CC4(CCC(c5cc6cc(-c7ccccc7O)nnc6s5)CC4)C3)no2)C(C)C)cc1 [Compound 89, (2S,4R)-4-hydroxy-1-((R)-2-(3-(7-(3-(2-hydroxyphenyl)thieno[2,3-c]pyridazin-6-yl)-2-azaspiro[3.5]nonan-2-yl)isoxazol-5-yl)-3-methylbutanoyl)-N-((S)-1-(4-(4-methylthiazol-5-yl)phenyl)ethyl)pyrrolidine-2-carboxamide] | A (“A” indicates maximum degradation ≥75%) | < 10 | > 75 | > 10 |
| Cc1ncsc1-c1ccc([C@H](C)NC(=O)[C@@H]2C[C@@H](O)CN2C(=O)[C@@H](c2cc(-c3cnc(N4CC[C@H](c5sc6nnc(-c7ccccc7O)cc6c5C)C[C@@H]4C)nc3)no2)C(C)C)cc1 [Compound 27, (2S,4R)-4-hydroxy-1-((R)-2-(3-(2-((2S,4S)-4-(3-(2-hydroxyphenyl)-5-methylthieno[2,3-c]pyridazin-6-yl)-2-methylpiperidin-1-yl)pyrimidin-5-yl)isoxazol-5-yl)-3-methylbutanoyl)-N-((S)-1-(4-(4-methylthiazol-5-yl)phenyl)ethyl)pyrrolidine-2-carboxamide] | A (“A” indicates maximum degradation ≥75%) | < 10 | < 50 | > 1000 |
| Cc1ncsc1-c1ccc([C@H](C)NC(=O)[C@@H]2C[C@@H](O)CN2C(=O)[C@@H](c2cc(-c3ccnc(N4CC[C@@H](c5cc6nnc(-c7ccccc7O)cc6s5)C4)n3)no2)C(C)C)cc1 [Compound 83, (2S,4R)-4-hydroxy-1-((R)-2-(3-(2-((R)-3-(3-(2-hydroxyphenyl)thieno[3,2-c]pyridazin-6-yl)pyrrolidin-1-yl)pyrimidin-4-yl)isoxazol-5-yl)-3-methylbutanoyl)-N-((S)-1-(4-(4-methylthiazol-5-yl)phenyl)ethyl)pyrrolidine-2-carboxamide] | A (“A” indicates maximum degradation ≥75%) | > 10 | < 50 | – |
| Cc1cc(-c2cc([C@H](C(=O)N3C[C@H](O)C[C@H]3C(=O)N[C@@H](C)c3ccc(-c4scnc4C)cc3)C(C)C)on2)cnc1N1CC[C@@H](c2sc3nnc(-c4ccccc4O)cc3c2C)C1 [Compound 101, (2S,4R)-4-hydroxy-1-((R)-2-(3-(6-((R)-3-(3-(2-hydroxyphenyl)-5-methylthieno[2,3-c]pyridazin-6-yl)pyrrolidin-1-yl)-5-methylpyridin-3-yl)isoxazol-5-yl)-3-methylbutanoyl)-N-((S)-1-(4-(4-methylthiazol-5-yl)phenyl)ethyl)pyrrolidine-2-carboxamide] | A (“A” indicates maximum degradation ≥75%) | > 10 | < 50 | – |
| Cc1ncsc1-c1ccc([C@H](C)NC(=O)[C@@H]2C[C@@H](O)CN2C(=O)C(c2cc([C@H]3CC[C@H](c4cnc(N5CCC(c6sc7nnc(-c8ccccc8O)cc7c6C)CC5)nc4)CC3)no2)C(C)C)cc1 (stereo partly drawn) [Compound 64, (2S,4R)-4-hydroxy-1-((R)-2-(3-((1s,4S)-4-(2-(4-(3-(2-hydroxyphenyl)-5-methylthieno[2,3-c]pyridazin-6-yl)piperidin-1-yl)pyrimidin-5-yl)cyclohexyl)isoxazol-5-yl)-3-methylbutanoyl)-N—((S)-1-(4-(4-methylthiazol-5-yl)phenyl)ethyl)pyrrolidine-2-carboxamide] | A (“A” indicates maximum degradation ≥75%) | < 10 | > 75 | > 10 |
| Cc1ncsc1-c1ccc([C@H](C)NC(=O)[C@@H]2C[C@@H](O)CN2C(=O)[C@@H](c2cc(N3CC(c4sc5nnc(-c6ccccc6O)cc5c4C)C3)no2)C(C)C)cc1 [Compound 19, (2S,4R)-4-hydroxy-1-((R)-2-(3-(3-(3-(2-hydroxyphenyl)-5-methylthieno[2,3-c]pyridazin-6-yl)azetidin-1-yl)isoxazol-5-yl)-3-methylbutanoyl)-N-((S)-1-(4-(4-methylthiazol-5-yl)phenyl)ethyl)pyrrolidine-2-carboxamide] | 2% | > 1000 | < 50 | > 1000 |
| Cc1ncsc1-c1ccc([C@H](C)NC(=O)[C@@H]2C[C@@H](O)CN2C(=O)[C@@H](c2cc(-c3ccc(N4CCC(c5sc6nnc(-c7ccccc7O)cc6c5C)CC4)nc3)no2)C(C)C)cc1 [Compound 59, (2S,4R)-4-hydroxy-1-((R)-2-(3-(6-(4-(3-(2-hydroxyphenyl)-5-methylthieno[2,3-c]pyridazin-6-yl)piperidin-1-yl)pyridin-3-yl)isoxazol-5-yl)-3-methylbutanoyl)-N-((S)-1-(4-(4-methylthiazol-5-yl)phenyl)ethyl)pyrrolidine-2-carboxamide] | A (“A” indicates maximum degradation ≥75%) | < 10 | < 50 | > 1000 |
| Cc1ncsc1-c1ccc([C@H](C)NC(=O)[C@@H]2C[C@@H](O)CN2C(=O)[C@@H](c2cc(-c3cnc(N4C[C@H]5C[C@@H](C4)[C@H]5c4cc5cc(-c6ccccc6O)nnc5s4)nc3)no2)C(C)C)cc1 [Compound 15, (2S,4R)-4-hydroxy-1-((R)-2-(3-(2-((1R,5S,6S)-6-(3-(2-hydroxyphenyl)thieno[2,3-c]pyridazin-6-yl)-3-azabicyclo[3.1.1]heptan-3-yl)pyrimidin-5-yl)isoxazol-5-yl)-3-methylbutanoyl)-N-((S)-1-(4-(4-methylthiazol-5-yl)phenyl)ethyl)pyrrolidine-2-carboxamide] | B (“B” indicates maximum degradation ≥50%) | > 100 | < 50 | > 1000 |
| Cc1ncsc1-c1ccc([C@H](C)NC(=O)[C@@H]2C[C@@H](O)CN2C(=O)[C@@H](c2cc(Oc3ccnc(N4CCC(c5sc6nnc(-c7ccccc7O)cc6c5C)CC4)n3)no2)C(C)C)cc1 (single isomer, unassigned) [Compound 62] | C (“C” indicates maximum degradation <50%) | > 1000 | < 50 | > 1000 |
| Cc1ncsc1-c1ccc([C@H](C)NC(=O)[C@@H]2C[C@@H](O)CN2C(=O)[C@@H](c2cc(N3CC[C@H](c4sc5nnc(-c6ccccc6O)cc5c4C)C3)no2)C(C)C)cc1 [Compound 78, (2S,4R)-4-hydroxy-1-((R)-2-(3-((S)-3-(3-(2-hydroxyphenyl)-5-methylthieno[2,3-c]pyridazin-6-yl)pyrrolidin-1-yl)isoxazol-5-yl)-3-methylbutanoyl)-N-((S)-1-(4-(4-methylthiazol-5-yl)phenyl)ethyl)pyrrolidine-2-carboxamide] | A (“A” indicates maximum degradation ≥75%) | < 10 | > 50 | > 10 |
| Cc1ncsc1-c1ccc([C@H](C)NC(=O)[C@@H]2C[C@@H](O)CN2C(=O)[C@@H](c2cc(-c3ccc(N4CCC(c5cc6cc(-c7ccccc7O)nnc6s5)CC4)nn3)no2)C(C)C)cc1 [Compound 33, (2S,4R)-4-hydroxy-1-((R)-2-(3-(6-(4-(3-(2-hydroxyphenyl)thieno[2,3-c]pyridazin-6-yl)piperidin-1-yl)pyridazin-3-yl)isoxazol-5-yl)-3-methylbutanoyl)-N-((S)-1-(4-(4-methylthiazol-5-yl)phenyl)ethyl)pyrrolidine-2-carboxamide] | A (“A” indicates maximum degradation ≥75%) | > 10 | < 50 | > 1000 |
| Cc1ncsc1-c1ccc([C@H](C)NC(=O)[C@@H]2C[C@@H](O)CN2C(=O)[C@@H](c2cc(-c3cnc(N4CC[C@H](c5cc6nnc(-c7ccccc7O)cc6s5)C4)nc3)no2)C(C)C)cc1 [Compound 91, (2S,4R)-4-hydroxy-1-((R)-2-(3-(2-((S)-3-(3-(2-hydroxyphenyl)thieno[3,2-c]pyridazin-6-yl)pyrrolidin-1-yl)pyrimidin-5-yl)isoxazol-5-yl)-3-methylbutanoyl)-N-((S)-1-(4-(4-methylthiazol-5-yl)phenyl)ethyl)pyrrolidine-2-carboxamide] | A (“A” indicates maximum degradation ≥75%) | < 10 | > 50 | – |

From patent US20250304596A1, “PYRAZINE DERIVATIVES AND USES THEREOF” (FOGHORN THERAPEUTICS INC., priority 2022, published 2025)
